target: T1, 20S proteasome, β5 subunit (chymotrypsin-like activity) (Homo sapiens, UniProt P28074); format: biochemical
T1 sequence (P28074 60-263): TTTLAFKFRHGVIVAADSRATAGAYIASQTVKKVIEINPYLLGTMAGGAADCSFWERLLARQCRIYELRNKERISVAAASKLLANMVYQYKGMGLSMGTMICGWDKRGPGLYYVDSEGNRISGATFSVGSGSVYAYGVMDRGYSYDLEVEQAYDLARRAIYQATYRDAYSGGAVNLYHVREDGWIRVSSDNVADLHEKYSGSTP

Row | Substance | IC50
1 | [Cd2(C11H10O2N)4(H2O)2]·2H2O | 3 µM
2 | [Cd(C7H4N2O2)(C8H6O2)2]·2H2O [Cd3] | 3.3 µM
3 | [Cd2(C12H12O2N)4(H2O)2]·2H2O [Cd1] | 2.6 µM

Reference: publication PMC3648619 (Journal of inorganic biochemistry, 2013)
